# Measured values published in publication PMC6373673, “Purified PEGylated human glucagon-like peptide-2 reduces the severity of irradiation-induced acute radiation enteritis in rats” (Journal of Radiation Research, 2018).
# Legend:
# TNF-α = assay: Intestinal TNF-α by sandwich ELISA after X-ray irradiation; assay type: in vivo, Sprague Dawley (SD) rats; conditions: SD rats, 8 Gy abdominal X-ray, 30 μg i.p. 5 min before irradiation, small intestine homogenate 48 h after, mean ± S.D., n = 10
# From the text: (§1) Sixty adult male Sprague Dawley (SD) rats weighing 220–250 g were included in our study. Rats were subjected to 1 week of preliminary conditioning, during which time they received standard pellet rat chow and water ad libitum. They were housed in a temperature-and humidity-controlled environment, two animals per cage, with a 12-h light/12-h dark cycle. The Principles of Laboratory Animal Care (NIH Publication 85e23, revised 1996) were followed. Animal study protocols were approved by the Ethics Committee of the Fourth Military Medical University. The experiment was carried out at the Department of Pharmacy, Tangdu Hospital, Fourth Military Medical University.
# (§2) X-ray irradiation was performed using a linear accelerator (Siemens primask) adjusted to provide X-ray irradiation, and carried out at the Department of Radiology and Oncology at the Tangdu Hospital. All of the animals were anesthetized with an intramuscular injection of pentobarbital sodium (100 mg/kg) and subjected to a single dose of 8 Gy abdominal X-radiation. The dose was delivered at a rate of 400 monitor units/min (1100 rad, 116.5 cGy/min, 100 cm source–skin distance) using a conventional radiation source, while the other parts of the body were carefully shielded.
# Rats were randomized into six groups (Groups A–F). […] The remaining rats were subjected to a single dose of 8 Gy of abdominopelvic X-radiation and randomized further into five groups (Groups B–F). […] Briefly, rats were anesthetized with 100 mg/kg pentobarbital sodium, positioned supine, and subjected to a single fraction of 8 Gy delivered at a specific depth through abdominopelvic fields using X-rays at the rate of 0.74 Gy/min, while the other parts of the body were carefully shielded. […]
# Malondialdehyde (MDA) levels, glutathione (GSH) content, and the activities of super oxide-dismutase (SOD) and glutathione peroxidase (GPx) were determined in the small intestine using commercial assay kits (Biyuntian Co., China) according to the manufacturer’s protocols. The protein content ratio was determined by Pierce™ BCA Protein Assay Kit (Thermo Fisher Scientific Inc., Rockford, IL, USA). […] Total protein concentrations of tissue homogenates were detected by a Pierce™ BCA Protein Assay Kit (Thermo Scientific; Rockford, IL, USA). The levels of tumor necrosis factor-alpha (TNF-α) (Invitrogen; Carlsbad, CA, USA) and interleukin-2 (IL-2) (Bioo Scientific; Austin, TX, USA) in the tissue samples were determined using commercially available sandwich ELISA kits, according to the protocol recommended by the manufacturer. Results were recorded as the ratio of detected protein (TNF-α, IL-2) (pg/ml) to the amount of total protein (mg/ml).
# [1] = test system: oxidative stress markers (MDA, SOD, GSH, GSH-Px) in the small intestine; assay: Intestinal MDA, SOD, GSH and GSH-Px (commercial assay kits) after X-ray irradiation; assay type: in vivo, Sprague Dawley (SD) rats; conditions: SD rats, 8 Gy abdominal X-ray, 30 μg i.p. 5 min before irradiation
# From the text: as §1, §2
# (§3) Rats were randomized into six groups (Groups A–F). […] The remaining rats were subjected to a single dose of 8 Gy of abdominopelvic X-radiation and randomized further into five groups (Groups B–F). […] Briefly, rats were anesthetized with 100 mg/kg pentobarbital sodium, positioned supine, and subjected to a single fraction of 8 Gy delivered at a specific depth through abdominopelvic fields using X-rays at the rate of 0.74 Gy/min, while the other parts of the body were carefully shielded. Radiated rats were allowed to recover from the anesthetic and GLP-2 or Mono-PEG-hGLP-2 was administered by intraperitoneal injection. • Group A: non-X-ray irradiated (control). • Group B: X-ray irradiated. • Group C: pretreated with 3 μg of Mono-PEG-hGLP-2 in 0.3 ml of saline 5 min before X-ray irradiation. • Group D: pretreated with 10 μg of Mono-PEG-hGLP-2 in 0.3 ml of saline 5 min before X-ray irradiation. • Group E: pretreated with 30 μg of Mono-PEG-hGLP-2 in 0.3 ml of saline 5 min before X-ray irradiation. • Group F: pretreated with 30 μg of GLP-2 in 0.3 ml of saline 5 min before X-ray irradiation.
# Malondialdehyde (MDA) levels, glutathione (GSH) content, and the activities of super oxide-dismutase (SOD) and glutathione peroxidase (GPx) were determined in the small intestine using commercial assay kits (Biyuntian Co., China) according to the manufacturer’s protocols. The protein content ratio was determined by Pierce™ BCA Protein Assay Kit (Thermo Fisher Scientific Inc., Rockford, IL, USA). All of the values were normalized to total intestinal protein. Small intestine tissue (20 mg) was homogenized in lysis buffer (150 mM NaCl, 0.1% SDS, 0.1% NP-40, 20 mM Tris-HCl pH 7.5) and protease inhibitor cocktail using a Tissue Lyser II homogenizer (Qiagen; Hilden, Germany). Total protein concentrations of tissue homogenates were detected by a Pierce™ BCA Protein Assay Kit (Thermo Scientific; Rockford, IL, USA). The levels of tumor necrosis factor-alpha (TNF-α) (Invitrogen; Carlsbad, CA, USA) and interleukin-2 (IL-2) (Bioo Scientific; Austin, TX, USA) in the tissue samples were determined using commercially available sandwich ELISA kits, according to the protocol recommended by the manufacturer. Results were recorded as the ratio of detected protein (TNF-α, IL-2) (pg/ml) to the amount of total protein (mg/ml).
# [2] = test system: irradiation-induced acute radiation enteritis in rats; assay: Clinical, gross, histological and morphometric changes of the small intestine in irradiation-induced acute radiation enteritis; assay type: in vivo, Sprague Dawley (SD) rats; design: key to Shortening of villi (histologic) / Architectural disarray (histologic) / Diarrhea / Abdominal distention / Intestinal dilatation (gross) / Mucosal ulceration (gross) / Edema (gross): (–) = absent; (+) = present; Number of villi: unit not given here; conditions: SD rats, 8 Gy abdominal X-ray
# From the text: as §1, §2, §3
# Animals were killed 48 h after X-ray irradiation, and laparotomies were performed. Immediately after the laparotomy, the small intestine (jejunum) was examined and removed. Two-centimeter segments of the jejunum and segments of the intestine showing edema and change in color (purple) were resected. Luminal contents were washed with 0.9% NaCl by injecting saline through the lumen of the small bowel segments. Tissue samples were pinned out on a paraffin block and floated upside down in 10% buffered formalin overnight, dehydrated, and embedded in paraffin. Sections of 4 μm were cut with a Leica sliding microtome (SM 2000R, Nussbach, Germany) and slides, containing a minimum of 10 sections, were stained with hematoxylin and erosin stains. Some representative intestine sections were processed for ultrastructural studies. Sections were evaluated quantitatively and qualitatively in a blinded fashion.
# For histological assessment, villous height (from the base to the tip of the villi), crypt height (from the base to the tip of each crypt), and the number of villi per square millimeter was determined based on individual intestinal segments at five separate microscopic fields for each animal. They were recorded as the mean values using ocular micrometer-adapted light microscopy at a magnification of ×100.
# [3] = GLP-2 in vivo, introduction statement, no reference given; cited from earlier work
# From the text: Glucagon-like peptide-2 (GLP-2) is a 33-amino acid peptide derived from the post-translational processing of proglucagon in enteroendocrine L-cells and cerebral neurons. GLP-2 exerts diverse effects related to the regulation of gastrointestinal growth and function, including stimulation of mucosal growth, inhibition of apoptosis, increased nutrient absorption, inhibition of gastric emptying and gastric acid secretion, reduction of intestinal permeability, stimulation of intestinal blood flow, and relaxation of intestinal smooth muscle. GLP-2 h ...
# [4] = small intestine 48 h after, mean ± S.D., n = 10
# [5] = 30 μg i.p. 5 min before irradiation, jejunum 48 h after, five microscopic fields per animal, ×100, mean ± SD
# [6] = 30 μg i.p. in 0.3 ml saline 5 min before irradiation, killed 48 h after
smiles,measurement,setting,value
"CC[C@H](C)[C@H](NC(=O)[C@H](Cc1ccccc1)NC(=O)[C@H](CC(=O)O)NC(=O)[C@H](CCCNC(=N)N)NC(=O)[C@H](C)NC(=O)[C@H](C)NC(=O)[C@H](CC(C)C)NC(=O)[C@H](CC(N)=O)NC(=O)[C@H](CC(=O)O)NC(=O)[C@H](CC(C)C)NC(=O)[C@@H](NC(=O)[C@@H](NC(=O)[C@H](CC(N)=O)NC(=O)[C@H](CCSC)NC(=O)[C@H](CCC(=O)O)NC(=O)[C@H](CC(=O)O)NC(=O)[C@H](CO)NC(=O)[C@H](Cc1ccccc1)NC(=O)[C@H](CO)NC(=O)CNC(=O)[C@H](CC(=O)O)NC(=O)[C@H](C)NC(=O)[C@@H](N)Cc1c[nH]cn1)[C@@H](C)O)[C@@H](C)CC)C(=O)N[C@@H](CC(N)=O)C(=O)N[C@@H](Cc1c[nH]c2ccccc12)C(=O)N[C@@H](CC(C)C)C(=O)N[C@H](C(=O)N[C@@H](CCC(N)=O)C(=O)N[C@H](C(=O)N[C@@H](CCCCN)C(=O)N[C@H](C(=O)N[C@H](C(=O)N[C@@H](CC(=O)O)C(N)=O)[C@@H](C)O)[C@@H](C)CC)[C@@H](C)O)[C@@H](C)CC [GLP-2, hGLP-2(1–33) amide, reference compound]",Intestinal content of TNF-α,TNF-α,9.78 ± 1.06 pg/mg prot
same,Protective effect on intestinal antioxidant enzymes and inflammatory factors,[1]; result in words,no significant protective effect
same,Intestinal GSH-Px activity,[1]; [4],246.1 ± 37.8 U/mg prot
same,Intestinal SOD activity,[1]; [4],35.27 ± 4.66 U/mg prot
same,Intestinal content of GSH,[1]; [4],18.22 ± 3.44 mg/g prot
same,Intestinal content of MDA,[1]; [4],5.51 ± 0.47 nmol/mg prot
same,Crypt height,[2]; [5],113.8 ± 10.9 μm
same,Height of villi,[2]; [5],229.7 ± 15.9 μm
same,Number of villi,[2]; [5],32.1 ± 4.1
same,Abdominal distention,[2]; [6],+
same,Architectural disarray (histologic),[2]; [6],+
same,Diarrhea,[2]; [6],+
same,Edema (gross),[2]; [6],+
same,Intestinal dilatation (gross),[2]; [6],+
same,Mucosal ulceration (gross),[2]; [6],+
same,Shortening of villi (histologic),[2]; [6],+
same,"Protection against radiation-induced intestinal injury (villi integrity, histology)","[2]; i.p. pretreatment 5 min before irradiation, result in words",did not protect mice against radiation-induced intestinal injury
same,plasma half-life,[3],7 min
